Tests used:
[1] = tested on: human melanoma A375 cells; test: Tumor cell proliferation assay (ATP Lite), A375; format: cell-based; conditions: A-375, 96 h, 4 days
Summary of the method: (§1)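 Cells seeded at 1500/well (C26) or 2000/well (A375, MiaPaCa-2) grew overnight, then were exposed to serially diluted compounds (0.25% DMSO final) for 4 days in serum-containing DMEM or RPMI. Viability read by ATPlite luminescence; IC50 is the concentration giving 50% cell death.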

[2] = tested on: human pancreatic MiaPaCa-2 cells; test: Tumor cell proliferation assay (ATP Lite), MiaPaCa-2; format: cell-based; conditions: MIA PaCa-2, 96 h, 4 days
Summary of the method: as §1

human MEK1 = human MEK1 (Homo sapiens, UniProt Q02750); test: MEK-1 Enzyme Assay (LANCE-HTRF); format: biochemical; conditions: 100 nM MEK1, 15 μM ATP, 300 nM ERK2, two hours; read-out: MEK inhibition
human MEK1, sequence (Q02750 whole entry): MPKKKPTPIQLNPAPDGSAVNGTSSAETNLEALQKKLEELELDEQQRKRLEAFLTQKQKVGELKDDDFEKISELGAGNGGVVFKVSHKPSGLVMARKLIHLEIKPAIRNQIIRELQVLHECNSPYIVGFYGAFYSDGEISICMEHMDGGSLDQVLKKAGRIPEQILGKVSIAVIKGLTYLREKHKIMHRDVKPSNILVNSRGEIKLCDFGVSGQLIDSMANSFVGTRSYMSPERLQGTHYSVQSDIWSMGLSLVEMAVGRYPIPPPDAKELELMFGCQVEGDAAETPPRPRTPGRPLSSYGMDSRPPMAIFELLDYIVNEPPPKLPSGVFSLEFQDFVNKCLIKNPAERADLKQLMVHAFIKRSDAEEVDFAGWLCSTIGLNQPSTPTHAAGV
Summary of the method: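 TR-FRET readout of MEK1-catalysed ERK1 phosphorylation; after a 2 h reaction, Eu-anti-PY20 (5 nM) and anti-GST-APC (50 nM) were added in buffer with 50 mM EDTA and 0.05% BSA, then incubated 1 h in the dark.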

Murine colon C26 cells = test: Tumor cell proliferation assay (ATP Lite), C26; format: cell-based; conditions: Mus musculus, 96 h, 4 days
Summary of the method: as §1

SMILES | IC50 [1] | IC50 [2] | IC50 (human MEK1) | IC50 (Murine colon C26 cells)
O=C(NNc1ccnc2cc(Cl)ccc12)c1ccncc1Nc1ccc(I)cc1F [Example 56, N′-(7-chloroquinolin-4-yl)-3-[(2-fluoro-4-iodophenyl)amino]-isonicotino-hydrazide] | ≤ 3 µM | 3 to 10 µM | 1 to 10 µM | 3 to 10 µM
O=C(NC1CCC1)c1ccncc1Nc1ccc(I)cc1F [Example 58, N-cyclobutyl-3-[(2-fluoro-4-iodophenyl)amino]isonicotinamide] | ≤ 3 µM | ≤ 3 µM | < 1 µM | ≤ 3 µM
O=C(NC1CCCC1)c1ccncc1Nc1ccc(I)cc1F [Example 60, N-cyclopentyl-3-[(2-fluoro-4-iodophenyl)amino]isonicotinamide] | ≤ 3 µM | ≤ 3 µM | < 1 µM | ≤ 3 µM
CC(=O)NCCNC(=O)c1ccncc1Nc1ccc(I)cc1Cl [Example 64, N-(2-Acetylamino-ethyl)-3-(2-chloro-4-iodo-phenylamino)-isonicotinamide] | ≤ 3 µM | 3 to 10 µM | < 1 µM | 3 to 10 µM
CC(C)(C)ONC(=O)c1ccncc1Nc1ccc(I)cc1Cl [Example 65] | ≤ 3 µM | 3 to 10 µM | < 1 µM | 3 to 10 µM
NC(=O)c1ccncc1Nc1ccc(I)cc1 [Example 67, 3-(4-iodo-phenylamino)-isonicotinamide] | ≤ 3 µM | ≤ 3 µM | < 1 µM | ≤ 3 µM
NC(=O)c1cc(Br)ncc1Nc1ccc(I)cc1F [Example 68, 2-Bromo-5-(2-fluoro-4-iodo-phenylamino)-isonicotinamide] | ≤ 3 µM | ≤ 3 µM | < 1 µM | ≤ 3 µM
O=C(NCCCO)c1cc(Br)ncc1Nc1ccc(I)cc1F [Example 70, 2-Bromo-5-(2-fluoro-4-iodo-phenylamino)-N-(3-hydroxy-propyl)-isonicotinamide] | ≤ 3 µM | ≤ 3 µM | < 1 µM | ≤ 3 µM
O=C(NCCCn1ccnc1)c1cc(Br)ncc1Nc1ccc(I)cc1F [Example 72, 2-Bromo-5-(2-fluoro-4-iodo-phenylamino)-N-(3-imidazol-1-yl-propyl)-isonicotinamide] | ≤ 3 µM | 3 to 10 µM | < 1 µM | 3 to 10 µM
O=C(NCCO)c1cc(Br)ncc1Nc1ccc(I)cc1F [Example 74, 2-Bromo-5-(2-fluoro-4-iodo-phenylamino)-N-(2-hydroxy-ethyl)-isonicotinamide] | ≤ 3 µM | 3 to 10 µM | < 1 µM | 3 to 10 µM
O=C(NOC[C@@H](O)CO)c1ccncc1Nc1ccc(I)cc1F [Example 75, N-{[(2S)-2,3-dihydroxypropyl]oxy}-3-[(2-fluoro-4-iodophenyl)-amino]isonicotin-amide] | ≤ 3 µM | ≤ 3 µM | < 1 µM | ≤ 3 µM
CCONC(=O)c1ccncc1Nc1ccc(I)cc1Cl [Example 76] | ≤ 3 µM | 3 to 10 µM | < 1 µM | 3 to 10 µM
C=CCONC(=O)c1ccncc1Nc1ccc(I)cc1Cl [Example 77, N-allyloxy-3-(2-chloro-4-iodo-phenylamino)-isonicotinamide] | ≤ 3 µM | 3 to 10 µM | < 1 µM | 3 to 10 µM
O=C(NCCCCl)c1ccncc1Nc1ccc(I)cc1F [Example 79, N-(3-chloropropyl)-3-[(2-fluoro-4-iodophenyl)-amino]isonicotinamide] | ≤ 3 µM | ≤ 3 µM | < 1 µM | ≤ 3 µM
O=C(NOCc1ccccc1)c1ccncc1Nc1ccc(I)cc1Cl [Example 81, N-Benzyloxy-3-(2-chloro-4-iodo-phenylamino)-isonicotinamide] | ≤ 3 µM | 3 to 10 µM | < 1 µM | 3 to 10 µM
O=C(NC1CC2CCC1C2)c1ccncc1Nc1ccc(I)cc1F (stereo not drawn) [Example 82, N-bicyclo[2.2.1]hept-2-yl-3-[(2-fluoro-4-iodophenyl)amino]-isonicotinamide] | ≤ 3 µM | 3 to 10 µM | < 1 µM | 3 to 10 µM
O=C(NCC(O)COc1ccccc1)c1ccncc1Nc1ccc(I)cc1F (stereo not drawn) [Example 83] | ≤ 3 µM | ≤ 3 µM | < 1 µM | ≤ 3 µM
Cc1ccc(CCNC(=O)c2ccncc2Nc2ccc(I)cc2F)cc1 [Example 85, 3-[(2-fluoro-4-iodophenyl)amino]-N-[2-(4-methylphenyl)-ethyl]isonicotinamide] | ≤ 3 µM | 3 to 10 µM | < 1 µM | 3 to 10 µM
Cc1ccc(CC(=O)NC2CCN(C(=O)c3ccncc3Nc3ccc(I)cc3F)CC2)cc1 [Example 86, N-(1-{3-[(2-fluoro-4-iodophenyl)amino]isonicotinoyl}piperidin-4-yl)-2-(4-methylphenyl)acetamide] | ≤ 3 µM | 3 to 10 µM | < 1 µM | 3 to 10 µM
O=C(NCCN1CCOCC1)c1cc(Br)ncc1Nc1ccc(I)cc1F [Example 88, 2-Bromo-5-(2-fluoro-4-iodo-phenylamino)-N-(2-morpholin-4-yl-ethyl)-isonicotinamide] | 3 to 10 µM | 3 to 10 µM | < 1 µM | 3 to 10 µM
Cc1cccc(NNC(=O)c2ccncc2Nc2ccc(I)cc2F)c1 [Example 90, 3-[(2-fluoro-4-iodophenyl)amino]-N′-(3-methylphenyl)isonicotino-hydrazide] | ≤ 3 µM | ≤ 3 µM | < 1 µM | ≤ 3 µM
O=C(NOCc1ccccc1)c1ccncc1Nc1ccc(I)cc1F [Example 91, N-(benzyloxy)-3-[(2-fluoro-4-iodophenyl)amino]isonicotinamide] | ≤ 3 µM | 3 to 10 µM | < 1 µM | 3 to 10 µM
O=C(O)CONC(=O)c1ccncc1Nc1ccc(I)cc1F [Example 92, [({3-[(2-fluoro-4-iodophenyl)amino]isonicotinoyl}amino)oxy]acetic acid] | ≤ 3 µM | 3 to 10 µM | < 1 µM | 3 to 10 µM
O=C(NCc1ccc(F)cc1F)c1ccncc1Nc1ccc(I)cc1F [Example 93, N-(2,4-difluorobenzyl)-3-[(2-fluoro-4-iodophenyl)amino]-isonicotinamide] | ≤ 3 µM | 3 to 10 µM | < 1 µM | 3 to 10 µM
O=C(NOC[C@H](O)CO)c1ccncc1Nc1ccc(I)cc1 [Example 96, N-{[(2R)-2,3-dihydroxypropyl]oxy}-3-(4-iodophenylamino)-isonicotinamide] | ≤ 3 µM | ≤ 3 µM | < 1 µM | ≤ 3 µM
NC(=O)c1cc[n+]([O-])cc1Nc1ccc(I)cc1F [Example 97, 3-(2-Fluoro-4-iodo-phenylamino)-1-oxy-isonicotinamide] | ≤ 3 µM | ≤ 3 µM | < 1 µM | ≤ 3 µM
CCOC(CNC(=O)c1ccncc1Nc1ccc(I)cc1F)OCC [Example 98, N-(2,2-diethoxyethyl)-3-[(2-fluoro-4-iodophenyl)amino]-isonicotinamide] | ≤ 3 µM | 3 to 10 µM | < 1 µM | 3 to 10 µM

From US8524911B2, “3-arylamino pyridine derivatives” (Merck Serono SA, priority 2004, dated 2013)
